For assay [1], the target named is T1, BACE1 (Homo sapiens (Human), UniProt P56817). Kind of assay: In vitro enzymatic BACE1 FRET assay. As to conditions: read-out: IC50 IP (μM) BACE1 Enzyme. It is filed as biochemical.
Target sequence in this assay (P56817 46-501): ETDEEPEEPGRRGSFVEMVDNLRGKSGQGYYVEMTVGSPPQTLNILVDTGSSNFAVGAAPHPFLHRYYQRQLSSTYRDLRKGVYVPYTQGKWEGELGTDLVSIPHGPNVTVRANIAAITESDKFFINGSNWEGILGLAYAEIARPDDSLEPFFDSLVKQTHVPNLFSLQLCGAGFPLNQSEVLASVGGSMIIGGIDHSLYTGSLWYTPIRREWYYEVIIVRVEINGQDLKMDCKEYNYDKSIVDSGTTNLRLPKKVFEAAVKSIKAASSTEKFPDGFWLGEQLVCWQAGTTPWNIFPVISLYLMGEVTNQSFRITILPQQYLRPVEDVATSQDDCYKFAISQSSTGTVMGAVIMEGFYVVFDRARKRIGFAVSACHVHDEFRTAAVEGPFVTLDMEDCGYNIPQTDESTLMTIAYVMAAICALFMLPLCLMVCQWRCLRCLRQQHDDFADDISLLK
Excerpt: (§1) In Vitro Enzymatic BACE1 and BACE2 FRET (Fluorescence Resonance Energy Transfer) Assays (Enzyme Assay Data in Table 1)
In assay [2] the target is T1, BACE1. Kind of assay: BACE1 cell assay. It is filed as cell-based.
Target sequence in this assay (P56817 46-501, species assumed): as the sequence (P56817 46-501) above
The next assay deals with BACE2 (Homo sapiens (Human), UniProt Q9Y5Z0). The assay can be described thus: In vitro enzymatic BACE2 FRET assay. The assay is classed as biochemical. As to conditions: read-out: IC50 IP (μM) BACE2 Enzyme.
Another assay concerns the target Cathepsin D (CatD) (Homo sapiens (Human), UniProt P07339). Kind of assay: CatD assay. The assay is classed as biochemical. As to conditions: read-out: IC50 IP (μM) CatD.
The mark [3] stands for this setting: read-out: IC50 IP (μM) BACE1 Cell.

The structures appear in SMILES notation.

Sequence of BACE2 (Q9Y5Z0 63-518): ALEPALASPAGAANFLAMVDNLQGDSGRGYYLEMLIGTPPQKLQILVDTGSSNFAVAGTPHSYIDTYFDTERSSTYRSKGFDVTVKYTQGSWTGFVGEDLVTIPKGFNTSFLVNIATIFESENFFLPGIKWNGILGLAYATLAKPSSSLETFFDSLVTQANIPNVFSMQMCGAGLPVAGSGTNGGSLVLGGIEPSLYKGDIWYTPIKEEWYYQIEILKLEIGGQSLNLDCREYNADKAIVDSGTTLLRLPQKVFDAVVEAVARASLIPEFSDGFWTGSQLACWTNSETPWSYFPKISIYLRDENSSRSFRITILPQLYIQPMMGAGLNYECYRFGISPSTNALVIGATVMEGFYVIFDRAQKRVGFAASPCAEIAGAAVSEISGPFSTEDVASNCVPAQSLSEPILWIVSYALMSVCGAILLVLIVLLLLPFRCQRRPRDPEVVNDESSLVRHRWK
Sequence of Cathepsin D (CatD) (P07339 65-412, species assumed): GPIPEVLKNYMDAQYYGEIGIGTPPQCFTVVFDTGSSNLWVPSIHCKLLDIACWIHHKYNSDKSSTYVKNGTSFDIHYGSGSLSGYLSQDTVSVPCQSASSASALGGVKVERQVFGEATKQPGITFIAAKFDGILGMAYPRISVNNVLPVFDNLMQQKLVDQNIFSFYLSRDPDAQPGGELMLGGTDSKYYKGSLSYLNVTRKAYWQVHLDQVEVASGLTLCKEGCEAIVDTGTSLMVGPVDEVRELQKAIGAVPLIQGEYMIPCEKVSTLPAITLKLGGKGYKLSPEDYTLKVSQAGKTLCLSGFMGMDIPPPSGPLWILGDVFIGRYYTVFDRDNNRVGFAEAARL
Excerpt for BACE2: as §1

With `C[C@H]1CCN1C(=O)[C@]12C[C@H]1[C@@](C)(c1cc(/C=C(\F)c3ccc(Cl)cn3)ccc1F)N=C(N)S2` (single isomer, unassigned) [Example 119], the half-maximal inhibitory concentration (IC50) at BACE1 [1] is 0.0034 µM; on BACE1 [2] (setting [3]), 0.00406 µM; on BACE2, 0.00752 µM; on Cathepsin D (CatD), 42.3 µM.

Regarding `COC[C@]12C[C@H]1[C@@](CF)(c1cc(/C=C(\F)c3ccc(Cl)cn3)ccc1F)N=C(N)S2` [Example 100, (1S,5S,6S)-5-(5-((Z)-2-(5-chloropyridin-2-yl)-2-fluorovinyl)-2-fluorophenyl)-5-(fluoromethyl)-1-(methoxymethyl)-2-thia-4-azabicyclo[4.1.0]hept-3-en-3-amine], the IC50 at BACE1 [1] came out at 0.0228 µM; at BACE1 [2] (setting [3]) it was 0.26 µM; on BACE2 it was 0.0421 µM; at Cathepsin D (CatD), 933 µM.

As for `COC[C@]12C[C@H]1[C@@](CF)(c1cc(/C=C(/F)c3ccc(Cl)cn3)ccc1F)N=C(N)S2` [Example 101, (1S,5S,6S)-5-(5-((E)-2-(5-chloropyridin-2-yl)-2-fluorovinyl)-2-fluorophenyl)-5-(fluoromethyl)-1-(methoxymethyl)-2-thia-4-azabicyclo[4.1.0]hept-3-en-3-amine], the IC50 on BACE1 [1] worked out at 0.303 µM; at BACE1 [2] (setting [3]), 1.6 µM; at BACE2 it was 0.281 µM; on Cathepsin D (CatD), 154 µM.

As to `COc1ccc(/C(F)=C/c2ccc(F)c([C@@]3(C)N=C(N)S[C@@]4(C(=O)N5CCCC5)C[C@H]43)c2)nc1` [Example 104, ((1S,5S,6S)-3-amino-5-(2-fluoro-5-((Z)-2-fluoro-2-(5-methoxypyridin-2-yl)vinyl)phenyl)-5-methyl-2-thia-4-azabicyclo[4.1.0]hept-3-en-1-yl)(pyrrolidin-1-yl)methanone], the IC50 at BACE1 [1] amounted to 0.0226 µM; on BACE1 [2] (setting [3]), 0.0221 µM; on BACE2 it was 0.144 µM; on Cathepsin D (CatD), 185 µM.

As to `C[C@]1(c2cc(/C=C(\F)c3ccc(C#N)cn3)ccc2F)N=C(N)S[C@@]2(C(=O)N3CCCC3)C[C@H]21` [Example 107, 6-((Z)-2-(3-((1S,5S,6S)-3-amino-5-methyl-1-(pyrrolidine-1-carbonyl)-2-thia-4-azabicyclo[4.1.0]hept-3-en-5-yl)-4-fluorophenyl)-1-fluorovinyl)nicotinonitrile], the results for the 50% inhibitory concentration (IC50) on BACE1 [1], at BACE1 [2] (setting [3]) and at Cathepsin D (CatD) were 0.000673 µM, 0.00384 µM and 396 µM, respectively.

With `CN(C)C(=O)[C@]12C[C@H]1[C@@](C)(c1cc(/C=C(\F)c3ccc(Br)cn3)ccc1F)N=C(N)S2` [Example 108, (1S,5S,6S)-3-amino-5-(5-((Z)-2-(5-bromopyridin-2-yl)-2-fluorovinyl)-2-fluorophenyl)-N,N,5-trimethyl-2-thia-4-azabicyclo[4.1.0]hept-3-ene-1-carboxamide], the 50% inhibitory concentration (IC50) at BACE1 [1] came out at 0.00199 µM; at BACE1 [2] (setting [3]), 0.00853 µM; at BACE2, 0.00292 µM; on Cathepsin D (CatD), 519 µM.

On to `CN(C)C(=O)[C@]12C[C@H]1[C@@](C)(c1cc(/C=C(\F)c3ccc(C#CC4CC4)cn3)ccc1F)N=C(N)S2` [Example 109, (1S,5S,6S)-3-amino-5-(5-((Z)-2-(5-(cyclopropylethynyl)pyridin-2-yl)-2-fluorovinyl)-2-fluorophenyl)-N,N,5-trimethyl-2-thia-4-azabicyclo[4.1.0]hept-3-ene-1-carboxamide], for which the 50% inhibitory concentration (IC50) was determined as 0.00849 µM on BACE1 [1], 0.223 µM at BACE1 [2] (setting [3]), 0.0615 µM on BACE2 and 138 µM on Cathepsin D (CatD).

For the molecule `CN(C)C(=O)[C@]12C[C@H]1[C@@](C)(c1cc(/C=C(\F)c3cnc(C#CC4CC4)cn3)ccc1F)N=C(N)S2` [Example 159, (1S,5S,6S)-3-amino-5-(5-((Z)-2-(5-(cyclopropylethynyl)pyrazin-2-yl)-2-fluorovinyl)-2-fluorophenyl)-N,N,5-trimethyl-2-thia-4-azabicyclo[4.1.0]hept-3-ene-1-carboxamide], the concentration for half-maximal inhibition (IC50) on BACE1 [1] came to 0.000856 µM; against BACE1 [2] it was 0.0166 µM; on Cathepsin D (CatD), 71.9 µM.

On to `C#CCOc1cnc(/C(F)=C/c2ccc(F)c([C@@]3(C)N=C(N)S[C@@]4(C(=O)N5CCOC[C@H]5C)C[C@H]43)c2)cn1` [Example 304, ((1S,5S,6S)-3-amino-5-(2-fluoro-5-((Z)-2-fluoro-2-(5-(prop-2-yn-1-yloxy)pyrazin-2-yl)vinyl)phenyl)-5-methyl-2-thia-4-azabicyclo[4.1.0]hept-3-en-1-yl)((R)-3-methylmorpholino)methanone], for which the 50% inhibitory concentration (IC50) at BACE1 [1] was 0.0006 µM; on BACE1 [2] (setting [3]), 0.0015 µM; at BACE2, 0.29 µM.

For `COC[C@]12C[C@H]1[C@@](C)(c1cc(/C=C(\F)c3cc4c(cn3)OCCO4)ccc1F)N=C(N)S2` [Example 305, (1S,5S,6S)-5-(5-((Z)-2-(2,3-dihydro-[1,4]dioxino[2,3-c]pyridin-7-yl)-2-fluorovinyl)-2-fluorophenyl)-1-(methoxymethyl)-5-methyl-2-thia-4-azabicyclo[4.1.0]hept-3-en-3-amine], the values for the half-inhibitory concentration (IC50) on BACE1 [1], on BACE1 [2] (setting [3]) and on BACE2 were 1.76 µM, 0.793 µM and 0.373 µM, respectively.

In the case of `C[C@]1(c2cc(/C=C(\F)c3ccc(C#N)cn3)ccc2F)N=C(N)S[C@@]2(C(=O)N3CCO[C@H]4C[C@H]43)C[C@H]21` [Example 311, 6-((Z)-2-(3-((1S,5S,6S)-3-amino-1-((1S,6R)-2-oxa-5-azabicyclo[4.1.0]heptane-5-carbonyl)-5-methyl-2-thia-4-azabicyclo[4.1.0]hept-3-en-5-yl)-4-fluorophenyl)-1-fluorovinyl)nicotinonitrile], the IC50 was found to be 0.0018 µM on BACE1 [1], 0.0015 µM at BACE1 [2] (setting [3]) and 0.048 µM at BACE2.

As to `C[C@]1(c2cc(/C=C(\F)c3ccc(C#N)cn3)ccc2F)N=C(N)S[C@@]2(C(=O)N3CCCC(F)(F)C3)C[C@H]21` [Example 324, 6-((Z)-2-(3-((1S,5S,6S)-3-amino-1-(3,3-difluoropiperidine-1-carbonyl)-5-methyl-2-thia-4-azabicyclo[4.1.0]hept-3-en-5-yl)-4-fluorophenyl)-1-fluorovinyl)nicotinonitrile], the results for the 50% inhibitory concentration (IC50) at BACE1 [1], at BACE1 [2] (setting [3]) and on BACE2 were 0.0011 µM, 0.0031 µM and 0.019 µM, respectively.

Take `C[C@]1(c2cc(/C=C(\F)c3ccc(C#N)cn3)ccc2F)N=C(N)S[C@@]2(C(=O)N3CC[C@@H](O)C3)C[C@H]21` [Example 333, 6-((Z)-2-(3-((1S,5S,6S)-3-amino-1-((R)-3-hydroxypyrrolidine-1-carbonyl)-5-methyl-2-thia-4-azabicyclo[4.1.0]hept-3-en-5-yl)-4-fluorophenyl)-1-fluorovinyl)nicotinonitrile]: the IC50 amounted to 0.0008 µM at BACE1 [1], 0.0007 µM on BACE1 [2] (setting [3]) and 0.053 µM at BACE2.

With `C#Cc1cnc(/C(F)=C/c2ccc(F)c([C@@]3(C)N=C(N)S[C@@]4(C(=O)N5CCOCC5)C[C@H]43)c2)cn1` [Example 350, ((1S,5S,6S)-3-amino-5-(5-((Z)-2-(5-ethynylpyrazin-2-yl)-2-fluorovinyl)-2-fluorophenyl)-5-methyl-2-thia-4-azabicyclo[4.1.0]hept-3-en-1-yl)(morpholino)methanone], the IC50 amounted to 0.004 µM at BACE1 [1], 0.04 µM at BACE1 [2] (setting [3]) and 0.046 µM on BACE2.

(Values after patent US10246429B2, “Vinyl fluoride cyclopropyl fused thiazin-2-amine compounds as beta-secretase inhibitors and methods of use” (AMGEN INC., priority 2015, dated 2019).)
